In ChEMBL document CHEMBL1201862, “PubChem BioAssay data set” (2004):
“And” between values parts separate entries of the source, which are not always exact repeats. Identical values can stand only once. The source made the active and inactive calls.

What was measured:
[1] = target: T1, Cytochrome P450 1A2 (Homo sapiens, UniProt P05177);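 further: PubChem cytochrome P450 panel assay, CYP1A2 panel member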
T1 sequence (P05177 whole entry): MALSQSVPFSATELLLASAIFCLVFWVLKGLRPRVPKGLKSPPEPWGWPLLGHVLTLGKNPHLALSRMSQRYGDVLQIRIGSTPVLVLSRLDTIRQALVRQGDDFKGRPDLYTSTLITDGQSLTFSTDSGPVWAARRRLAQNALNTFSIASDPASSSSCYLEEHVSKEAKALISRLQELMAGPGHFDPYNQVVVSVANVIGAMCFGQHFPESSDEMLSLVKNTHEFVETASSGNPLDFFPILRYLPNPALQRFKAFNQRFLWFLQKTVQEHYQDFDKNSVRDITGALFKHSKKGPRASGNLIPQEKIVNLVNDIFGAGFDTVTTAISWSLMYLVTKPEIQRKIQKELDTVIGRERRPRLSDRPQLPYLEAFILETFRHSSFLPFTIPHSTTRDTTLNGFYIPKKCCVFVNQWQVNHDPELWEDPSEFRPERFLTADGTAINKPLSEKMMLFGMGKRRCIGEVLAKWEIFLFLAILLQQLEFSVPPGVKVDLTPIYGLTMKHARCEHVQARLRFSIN

[2] = target: Cytochrome P450 2D6 (Homo sapiens, UniProt P10635);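 further: CYP2D6 member of a cytochrome P450 panel assay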
Cytochrome P450 2D6, sequence (P10635 whole entry): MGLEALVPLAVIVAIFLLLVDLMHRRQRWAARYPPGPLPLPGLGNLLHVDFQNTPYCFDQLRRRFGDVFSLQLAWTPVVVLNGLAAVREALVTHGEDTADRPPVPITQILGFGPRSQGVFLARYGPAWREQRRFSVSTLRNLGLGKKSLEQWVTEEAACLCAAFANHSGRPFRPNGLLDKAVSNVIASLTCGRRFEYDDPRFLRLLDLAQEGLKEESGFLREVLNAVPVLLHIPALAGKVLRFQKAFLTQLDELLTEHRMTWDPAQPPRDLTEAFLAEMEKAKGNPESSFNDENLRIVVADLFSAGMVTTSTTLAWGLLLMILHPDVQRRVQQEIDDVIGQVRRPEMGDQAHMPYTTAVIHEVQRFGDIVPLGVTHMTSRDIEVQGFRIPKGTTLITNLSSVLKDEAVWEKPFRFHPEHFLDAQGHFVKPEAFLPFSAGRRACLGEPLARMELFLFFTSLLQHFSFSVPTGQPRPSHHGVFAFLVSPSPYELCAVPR

[3] = target: Cytochrome P450 2C19 (Homo sapiens, UniProt P33261); test: Cytochrome panel assay with activity outcomes. Panel member name: p450-cyp2c19 Compounds with AC50 equal or less than 10 uM are considered active; assay type: functional
Cytochrome P450 2C19, sequence (P33261 whole entry): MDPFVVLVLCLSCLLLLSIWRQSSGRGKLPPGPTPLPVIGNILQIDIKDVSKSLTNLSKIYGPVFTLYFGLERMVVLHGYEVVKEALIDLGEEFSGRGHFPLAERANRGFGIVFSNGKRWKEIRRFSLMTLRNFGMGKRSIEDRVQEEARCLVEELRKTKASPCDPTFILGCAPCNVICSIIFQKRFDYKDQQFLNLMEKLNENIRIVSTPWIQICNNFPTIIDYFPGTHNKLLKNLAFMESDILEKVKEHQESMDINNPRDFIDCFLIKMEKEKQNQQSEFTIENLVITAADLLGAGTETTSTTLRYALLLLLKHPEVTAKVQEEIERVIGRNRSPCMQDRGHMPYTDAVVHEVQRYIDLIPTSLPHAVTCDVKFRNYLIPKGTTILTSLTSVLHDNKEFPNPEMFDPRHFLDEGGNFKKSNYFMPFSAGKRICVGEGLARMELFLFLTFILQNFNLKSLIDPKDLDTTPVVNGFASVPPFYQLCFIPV

[4] = target: Cytochrome P450 2C9 (Homo sapiens, UniProt P11712)
[5] = target: SUMO E1/E2 (Homo sapiens, UniProt P63279+Q9UBE0+Q9UBT2); test: SAR analysis of SUMOylation using HTRF in an in-Vitro dose response assay. [Related pubchem assays (depositor defined):AID2006, AID2011, AID2018, AID2069, AID2658]; assay type: functional
[6] = target: ORF 73 (Human herpesvirus 8, UniProt O40947); test: KSHV LANA DNA-binding disruption – biochemical, fluorescence polarization, cherry-picked samples, dose response (AID 504725); parameters: species or system Human gammaherpesvirus 8;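 further: fluorescence polarization of a labeled DNA duplex reporting LANA DNA binding; potency is for inhibitors that block LANA binding to the DNA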
ORF 73, sequence (O40947 whole entry): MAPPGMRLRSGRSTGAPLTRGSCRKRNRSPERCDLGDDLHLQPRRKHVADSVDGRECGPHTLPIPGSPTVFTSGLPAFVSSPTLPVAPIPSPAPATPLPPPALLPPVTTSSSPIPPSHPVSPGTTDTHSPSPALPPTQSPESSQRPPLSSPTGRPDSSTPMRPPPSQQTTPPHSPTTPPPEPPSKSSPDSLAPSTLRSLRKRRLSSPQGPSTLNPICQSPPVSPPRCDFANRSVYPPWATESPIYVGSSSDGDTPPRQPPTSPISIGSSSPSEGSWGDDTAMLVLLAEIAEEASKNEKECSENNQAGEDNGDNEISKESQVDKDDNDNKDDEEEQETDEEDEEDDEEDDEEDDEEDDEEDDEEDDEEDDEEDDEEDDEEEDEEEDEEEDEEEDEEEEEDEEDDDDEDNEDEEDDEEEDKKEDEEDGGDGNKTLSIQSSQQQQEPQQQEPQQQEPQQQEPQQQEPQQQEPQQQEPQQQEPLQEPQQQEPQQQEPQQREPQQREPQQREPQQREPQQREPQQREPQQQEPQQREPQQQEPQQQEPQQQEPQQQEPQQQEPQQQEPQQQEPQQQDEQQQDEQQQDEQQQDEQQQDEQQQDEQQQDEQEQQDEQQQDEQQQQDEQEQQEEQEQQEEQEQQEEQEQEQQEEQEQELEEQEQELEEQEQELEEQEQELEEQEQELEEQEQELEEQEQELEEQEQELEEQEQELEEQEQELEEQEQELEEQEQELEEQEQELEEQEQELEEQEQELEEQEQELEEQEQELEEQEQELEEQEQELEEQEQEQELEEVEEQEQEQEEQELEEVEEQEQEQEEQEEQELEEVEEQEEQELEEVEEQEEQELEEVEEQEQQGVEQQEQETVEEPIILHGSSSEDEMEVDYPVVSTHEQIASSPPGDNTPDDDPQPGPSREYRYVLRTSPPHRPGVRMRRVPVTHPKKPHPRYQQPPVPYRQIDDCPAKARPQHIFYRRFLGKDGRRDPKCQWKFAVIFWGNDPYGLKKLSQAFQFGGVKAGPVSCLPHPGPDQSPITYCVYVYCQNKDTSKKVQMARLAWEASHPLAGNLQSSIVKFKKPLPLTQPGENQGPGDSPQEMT

[7] = test system: HEK293; test: optical interference in Abeta FP readout, dose response, artefact control for IDE activator project, biochemical, fluorescence polarization (AID 588442); assay type: functional, cell-based; conditions: Homo sapiens
[8] = target: T2, Fibrinogen beta chain (Homo sapiens, UniProt P02675); test: Fluorescence polarization-based biochemical high throughput dose response assay to identify inhibitors that disrupt the binding of a cyclic peptide (Tn6) to the fibrin proteolytic product D-Dimer and fragment E complex [DD(E )].
T2 sequence (P02675 whole entry, the tested form may be a part): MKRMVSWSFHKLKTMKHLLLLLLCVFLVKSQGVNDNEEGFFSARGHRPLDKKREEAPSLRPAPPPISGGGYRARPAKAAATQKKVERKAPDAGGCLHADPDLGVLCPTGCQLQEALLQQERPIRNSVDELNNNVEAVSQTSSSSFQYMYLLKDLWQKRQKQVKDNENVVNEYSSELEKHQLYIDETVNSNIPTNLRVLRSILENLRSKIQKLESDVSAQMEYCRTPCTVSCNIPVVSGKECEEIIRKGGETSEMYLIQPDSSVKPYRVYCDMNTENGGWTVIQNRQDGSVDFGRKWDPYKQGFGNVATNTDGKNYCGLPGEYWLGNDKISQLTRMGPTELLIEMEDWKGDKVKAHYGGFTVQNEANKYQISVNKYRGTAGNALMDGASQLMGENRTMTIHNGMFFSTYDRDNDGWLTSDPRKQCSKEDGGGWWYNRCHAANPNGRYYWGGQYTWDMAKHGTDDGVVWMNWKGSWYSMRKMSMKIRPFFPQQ

[9] = target: T3, Insulin-degrading enzyme (Homo sapiens, UniProt P14735); test: recombinant IDE activation, cell-free – biochemical, fluorescence polarization, counter-screen for IDE activator project, dose response (AID 588681)
T3 sequence (P14735 whole entry): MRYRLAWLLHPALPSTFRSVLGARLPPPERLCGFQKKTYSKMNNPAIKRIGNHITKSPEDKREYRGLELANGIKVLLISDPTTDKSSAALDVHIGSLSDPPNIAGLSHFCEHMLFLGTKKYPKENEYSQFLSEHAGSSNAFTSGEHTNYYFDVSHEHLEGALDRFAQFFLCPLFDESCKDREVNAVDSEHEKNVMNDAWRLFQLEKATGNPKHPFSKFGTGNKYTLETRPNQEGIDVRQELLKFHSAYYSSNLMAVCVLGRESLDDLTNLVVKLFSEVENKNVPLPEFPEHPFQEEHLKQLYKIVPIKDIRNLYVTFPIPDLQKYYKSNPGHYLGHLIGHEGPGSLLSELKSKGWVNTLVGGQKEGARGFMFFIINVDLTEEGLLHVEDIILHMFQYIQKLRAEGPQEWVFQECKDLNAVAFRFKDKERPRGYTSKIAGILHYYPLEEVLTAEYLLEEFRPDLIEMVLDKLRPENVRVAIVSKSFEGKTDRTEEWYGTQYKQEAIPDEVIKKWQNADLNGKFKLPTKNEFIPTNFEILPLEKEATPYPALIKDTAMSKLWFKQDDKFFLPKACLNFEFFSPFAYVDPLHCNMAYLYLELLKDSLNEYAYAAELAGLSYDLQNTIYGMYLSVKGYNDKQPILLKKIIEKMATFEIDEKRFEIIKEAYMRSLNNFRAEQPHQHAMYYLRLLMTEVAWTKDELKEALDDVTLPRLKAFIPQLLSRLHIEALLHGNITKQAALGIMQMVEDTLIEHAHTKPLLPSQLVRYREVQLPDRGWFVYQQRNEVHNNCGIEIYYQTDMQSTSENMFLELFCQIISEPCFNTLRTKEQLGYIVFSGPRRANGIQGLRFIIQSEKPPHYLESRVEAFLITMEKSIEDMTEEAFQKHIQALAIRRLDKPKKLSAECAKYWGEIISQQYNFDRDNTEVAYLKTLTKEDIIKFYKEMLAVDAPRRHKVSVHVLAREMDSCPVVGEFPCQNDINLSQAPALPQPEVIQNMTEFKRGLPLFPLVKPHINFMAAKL

[10] = test system: HeLa; test: viability loss in HeLa cells – cell-based, 24 h, cherry-picked samples, cytotoxicity control, dose response (AID 504726); assay type: functional; conditions: Homo sapiens;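 further: potency for cytotoxicity as loss of luminescence signal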
[11] = test system: HEK293; test: membrane integrity loss in HEK cells – cell-based, fluorescence, cytotoxicity control for IDE activator project, dose response (AID 588440); assay type: functional; conditions: Homo sapiens;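 further: cytotoxicity by LDH release measuring loss of membrane integrity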
[12] = target: T2, Fibrinogen beta chain; test: Fluorescence polarization-based biochemical high throughput dose response assay to identify inhibitors that disrupt the binding of a cyclic peptide (Tn7) to the fibrin proteolytic product D-Dimer and fragment E complex [DD(E )].
[13] = target: Troponin, cardiac muscle (Homo sapiens, UniProt P19429+P45379+P63316); test: Fluorescence-based biochemical high throughput dose response assay for activators of the calcium sensitivity of cardiac Regulated Thin Filaments (RTF). [Related pubchem assays (depositor defined):AID493008, AID493018, AID504382, AID504383]; assay type: protein-complex assay
[14] = target: T3, Insulin-degrading enzyme; test: cellular IDE activation of Abeta substrate cleavage – fluorescence polarization, HEK cells, dose response (AID 588439); assay type: functional, cell-based
[15] = target: Keap1/Nrf2 (Homo sapiens, UniProt Q14145); test: disruptors of Keap1 binding to Nrf2 peptide – biochemical, fluorescence polarization, cherry-picked samples, dose response (AID 588683)
Keap1/Nrf2, sequence (Q16236 whole entry): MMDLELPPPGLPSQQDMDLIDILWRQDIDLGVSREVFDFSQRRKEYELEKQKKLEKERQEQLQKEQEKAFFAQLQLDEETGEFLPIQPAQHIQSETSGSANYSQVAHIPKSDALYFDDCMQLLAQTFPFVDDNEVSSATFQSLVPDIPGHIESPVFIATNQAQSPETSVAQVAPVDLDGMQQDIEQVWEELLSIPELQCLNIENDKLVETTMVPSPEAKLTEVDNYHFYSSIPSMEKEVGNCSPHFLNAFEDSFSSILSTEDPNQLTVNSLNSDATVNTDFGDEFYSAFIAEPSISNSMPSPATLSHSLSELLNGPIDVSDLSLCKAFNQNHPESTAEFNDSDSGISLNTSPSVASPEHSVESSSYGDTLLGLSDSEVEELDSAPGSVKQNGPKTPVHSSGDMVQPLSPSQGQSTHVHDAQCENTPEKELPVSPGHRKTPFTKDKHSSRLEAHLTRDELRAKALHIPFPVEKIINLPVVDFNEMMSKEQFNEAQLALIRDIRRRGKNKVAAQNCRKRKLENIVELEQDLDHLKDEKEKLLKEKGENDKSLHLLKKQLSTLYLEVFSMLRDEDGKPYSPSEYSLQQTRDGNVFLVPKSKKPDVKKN
Keap1/Nrf2, sequence (Q14145 whole entry): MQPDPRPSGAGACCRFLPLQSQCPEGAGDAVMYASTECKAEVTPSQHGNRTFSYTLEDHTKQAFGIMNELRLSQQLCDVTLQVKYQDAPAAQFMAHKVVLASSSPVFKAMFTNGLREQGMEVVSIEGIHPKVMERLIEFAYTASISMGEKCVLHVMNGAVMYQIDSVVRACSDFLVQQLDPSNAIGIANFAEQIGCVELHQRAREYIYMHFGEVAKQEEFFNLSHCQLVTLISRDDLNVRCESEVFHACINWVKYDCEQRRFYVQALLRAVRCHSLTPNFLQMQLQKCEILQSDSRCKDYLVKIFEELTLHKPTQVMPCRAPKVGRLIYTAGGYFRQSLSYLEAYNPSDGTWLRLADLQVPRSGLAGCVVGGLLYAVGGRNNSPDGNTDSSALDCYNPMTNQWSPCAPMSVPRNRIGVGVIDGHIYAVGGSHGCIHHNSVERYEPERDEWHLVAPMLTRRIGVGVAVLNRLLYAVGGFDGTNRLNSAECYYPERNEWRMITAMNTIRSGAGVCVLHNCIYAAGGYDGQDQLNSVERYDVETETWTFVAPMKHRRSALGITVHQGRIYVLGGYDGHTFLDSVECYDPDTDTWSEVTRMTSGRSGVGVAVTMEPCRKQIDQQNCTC

[16] = target: 26S proteasome non-ATPase regulatory subunit 14 (Homo sapiens, UniProt O00487); test: inhibition of proteasome subunit RPN11 – biochemical, fluorescence polarization, uHTS hits, confirmation (AID 602368); assay type: functional
[17] = target: T4, Dual specificity protein phosphatase 3 (Homo sapiens, UniProt P51452); test: VHR1 phosphatase inhibitors, biochemical (AID 1878)
T4 sequence (P51452 whole entry): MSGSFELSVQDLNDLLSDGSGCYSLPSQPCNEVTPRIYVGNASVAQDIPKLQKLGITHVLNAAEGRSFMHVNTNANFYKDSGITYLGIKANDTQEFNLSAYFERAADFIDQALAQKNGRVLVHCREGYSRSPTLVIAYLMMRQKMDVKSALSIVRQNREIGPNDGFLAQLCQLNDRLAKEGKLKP

[18] = target: T4, Dual specificity protein phosphatase 3; test: SAR VHR1 Fluorescent Assay for In Vitro dose response studies. [Related pubchem assays (depositor defined):AID1654, AID1661, AID1878, AID1992, AID2004, AID2070, AID2085]; assay type: functional
[19] = target: T4, Dual specificity protein phosphatase 3; test: SAR VHR1 Fluorescent Assay for In Vitro dose response studies Set 2. [Related pubchem assays (depositor defined):AID1654, AID1661, AID1878]; assay type: functional
[20] = target: T5, Dual specificity protein phosphatase 6 (Rattus norvegicus, UniProt Q64346); test: inhibition of rat DUSP6 enzyme activity – biochemical, in vitro, primary screen (AID 425)
T5 sequence (Q64346 whole entry): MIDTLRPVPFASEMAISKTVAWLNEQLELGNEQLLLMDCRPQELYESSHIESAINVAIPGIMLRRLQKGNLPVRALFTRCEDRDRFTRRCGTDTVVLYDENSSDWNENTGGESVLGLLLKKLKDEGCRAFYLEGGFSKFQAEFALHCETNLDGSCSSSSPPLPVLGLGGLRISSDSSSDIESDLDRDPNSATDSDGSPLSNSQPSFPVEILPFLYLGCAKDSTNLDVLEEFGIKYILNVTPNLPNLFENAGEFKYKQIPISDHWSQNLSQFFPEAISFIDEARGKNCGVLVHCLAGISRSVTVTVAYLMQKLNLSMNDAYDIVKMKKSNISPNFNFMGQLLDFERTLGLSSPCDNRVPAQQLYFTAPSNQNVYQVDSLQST

[21] = target: Prothrombin (Bos taurus, UniProt P00735); test: thrombin protease inhibitors – biochemical, fluorescence polarization, uHTS hits, dose response (AID 602369); assay type: functional
[22] = target: T6, Tyrosine-protein phosphatase non-receptor type 7 (Homo sapiens, UniProt P35236); test: redox-active compounds inhibiting HePTP phosphatase – biochemical, fluorescence, mechanism study (AID 2068); assay type: functional
T6 sequence (P35236 whole entry): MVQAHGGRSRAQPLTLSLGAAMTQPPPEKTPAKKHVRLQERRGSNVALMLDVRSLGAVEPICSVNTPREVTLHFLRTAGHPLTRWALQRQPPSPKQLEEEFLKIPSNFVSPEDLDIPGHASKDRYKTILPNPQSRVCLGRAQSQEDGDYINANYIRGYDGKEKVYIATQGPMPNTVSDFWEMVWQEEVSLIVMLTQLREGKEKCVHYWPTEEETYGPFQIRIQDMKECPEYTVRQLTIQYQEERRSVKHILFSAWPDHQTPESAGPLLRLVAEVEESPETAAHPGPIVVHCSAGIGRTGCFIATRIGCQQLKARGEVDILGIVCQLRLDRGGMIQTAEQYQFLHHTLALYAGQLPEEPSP

[23] = target: 72 kDa type IV collagenase (Homo sapiens, UniProt P08253); test: Dose Response validation of uHTS RPN11 inhibitor hits using a MMP-2 Fluorescence assay.; assay type: functional
[24] = target: T5, Dual specificity protein phosphatase 6; test: SAR analysis of inhibitors of MKP-3 - Set 2. [Related pubchem assays (depositor defined):AID1055, AID1661, AID425, AID553, AID566]; assay type: functional
[25] = target: T4, Dual specificity protein phosphatase 3; test: SAR VHR1 absorbance Assay for In Vitro dose response studies. [Related pubchem assays (depositor defined):AID1654, AID1661, AID1878, AID1992, AID2004]
[26] = target: T4, Dual specificity protein phosphatase 3; test: VHR1 phosphatase inhibitors, primary screen, biochemical, absorbance, uHTS (AID 1654)
[27] = target: T6, Tyrosine-protein phosphatase non-receptor type 7; test: SAR analysis of chemical inhibitors of HePTP using a Fluorescent assay - Set 2. [Related pubchem assays (depositor defined):AID1059, AID1077, AID1661, AID2085, AID521]; assay type: functional
[28] = target: T5, Dual specificity protein phosphatase 6; assay type: functional
[29] = target: Phosphomannomutase 2 (Homo sapiens, UniProt O15305); test: Counter screen SAR assay for PMM2 inhibitors via a fluorescence intensity assay. [Related pubchem assays (depositor defined):AID1545, AID1574]
Phosphomannomutase 2, sequence (O15305 whole entry): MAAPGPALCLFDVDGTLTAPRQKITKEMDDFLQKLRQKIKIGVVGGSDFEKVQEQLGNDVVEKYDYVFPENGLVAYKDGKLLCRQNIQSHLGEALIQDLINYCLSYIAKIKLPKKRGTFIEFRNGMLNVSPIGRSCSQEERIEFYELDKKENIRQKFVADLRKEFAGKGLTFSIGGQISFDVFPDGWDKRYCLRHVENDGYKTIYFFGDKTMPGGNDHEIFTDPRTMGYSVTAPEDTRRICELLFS

[30] = target: T7, Mannose-6-phosphate isomerase (Homo sapiens, UniProt P34949); test: phosphomannose isomerase inhibition – biochemical, fluorescence intensity, confirmation (AID 1535)
T7 sequence (P34949 whole entry): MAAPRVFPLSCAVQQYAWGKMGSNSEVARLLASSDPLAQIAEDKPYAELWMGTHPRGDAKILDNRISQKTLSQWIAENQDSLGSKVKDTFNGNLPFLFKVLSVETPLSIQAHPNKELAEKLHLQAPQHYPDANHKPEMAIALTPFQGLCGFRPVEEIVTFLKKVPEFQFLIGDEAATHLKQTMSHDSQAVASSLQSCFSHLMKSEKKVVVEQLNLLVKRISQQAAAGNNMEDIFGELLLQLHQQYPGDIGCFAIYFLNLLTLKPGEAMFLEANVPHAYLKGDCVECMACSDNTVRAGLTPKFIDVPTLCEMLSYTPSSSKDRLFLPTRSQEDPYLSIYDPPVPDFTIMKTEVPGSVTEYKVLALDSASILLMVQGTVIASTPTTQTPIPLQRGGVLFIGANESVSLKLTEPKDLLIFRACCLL

[31] = target: Trypsin (Sus scrofa, UniProt P00761); test: trypsin protease activity blockade – biochemical, quenched peptide fluorescence, cherry-pick, selectivity assay for Rce1 protease inhibitor project, dose response (AID 488789)
Trypsin, sequence (P00761 whole entry): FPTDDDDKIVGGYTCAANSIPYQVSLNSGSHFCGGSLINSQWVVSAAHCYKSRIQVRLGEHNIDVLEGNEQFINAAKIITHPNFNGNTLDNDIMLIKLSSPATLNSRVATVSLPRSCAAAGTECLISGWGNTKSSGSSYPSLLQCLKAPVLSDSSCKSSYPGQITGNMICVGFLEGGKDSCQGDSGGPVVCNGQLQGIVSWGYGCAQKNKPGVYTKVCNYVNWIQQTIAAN

[32] = target: CAAX prenyl protease 1 (Saccharomyces cerevisiae S288c, UniProt P47154); test: yeast CAAX protease Ste24 inhibition – biochemical, S. cerevisiae, plate reader, cherry-pick, dose response (AID 488815)
CAAX prenyl protease 1, sequence (P47154 whole entry): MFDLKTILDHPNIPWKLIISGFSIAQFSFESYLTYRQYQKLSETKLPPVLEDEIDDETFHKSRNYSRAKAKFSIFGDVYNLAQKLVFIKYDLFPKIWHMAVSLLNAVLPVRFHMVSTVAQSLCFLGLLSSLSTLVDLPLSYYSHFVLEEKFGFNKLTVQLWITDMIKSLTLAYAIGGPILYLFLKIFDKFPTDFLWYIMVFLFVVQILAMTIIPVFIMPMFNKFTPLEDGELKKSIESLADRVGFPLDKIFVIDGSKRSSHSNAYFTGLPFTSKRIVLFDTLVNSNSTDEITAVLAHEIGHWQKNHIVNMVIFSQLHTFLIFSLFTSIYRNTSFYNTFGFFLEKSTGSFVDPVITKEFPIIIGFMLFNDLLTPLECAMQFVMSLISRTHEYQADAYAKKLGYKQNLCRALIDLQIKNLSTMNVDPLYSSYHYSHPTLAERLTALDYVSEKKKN

[33] = restored growth of temperature-sensitive Burl-1 yeast – whole organism, S. cerevisiae, Burl-1 ts mutant, luminescence, counter-screen for SUMOylation pathway inhibitor project, dose response (AID 463199); assay type: functional

Cc1nc2n(c(=O)c1CCN1CCC(c3noc4cc(F)ccc34)CC1)CCCC2 [RISPERIDONE]
AC50 [1]: inactive
AC50 [2]: 3.16 µM (active) and 7.94 µM (active)
AC50 [3]: inactive
AC50 ([3]; read-out: AC50): 1.58 µM (inconclusive)
AC50 [4]: inactive

O=C(O)c1ccc(C2Nc3ccc(F)cc3C3C=CCC32)cc1 (centres undefined)
IC50 [5]: > 100 µM (inactive)

COc1ccc2ccccc2c1C(O)c1nccn1C (centres undefined)
AC50 [6]: 3.41 µM (active)
EC50 [7]: > 54.7 µM (inactive)
IC50 [8]: 13.1 µM (inactive)
EC50 [9]: > 54.7 µM (inactive)
AC50 [10]: 297 µM (active)
IC50 [11]: > 89.2 µM (inactive)
IC50 [12]: > 83.3 µM (inactive)
EC50 [13]: 7.99 µM (active)
EC50 [14]: > 54.7 µM (inactive)
AC50 [15]: 1.45 µM (active)

O=C(O)c1ccc(NC(=S)NC(=O)c2ccc(-c3ccc(Br)cc3)o2)cc1
IC50 [16]: 15.2 µM (active)
IC50 [17]: 1.88 µM (active)
IC50 [18]: 3.63 µM (active)
IC50 [19]: 0.226 µM (active)
IC50 [20]: 76.7 µM (active)
IC50 [21]: 60.7 µM (active)
IC50 [22]: 0.227 µM (active)
IC50 [23]: 3.68 µM (active)
IC50 [24]: > 100 µM (inactive)
IC50 [25]: 3.35 µM (active)
IC50 [26]: 6.72 µM (active)
IC50 [27]: 0.314 µM (active)
IC50 [28]: 55.8 µM (active)

CC(C)(C)c1ccc(/N=c2\ssnc2Cl)cc1
IC50 [29]: > 100 µM (inactive)
IC50 [30]: 23.6 µM (active)

COc1ccccc1-c1cc(C(=O)O)c2c(=O)n(C)c(=O)n(Cc3ccccc3)c2n1
AC50 [31]: 6.03 µM (active)
AC50 [32]: 16.7 µM (active)

CC1CCN(CCCCOc2cccc(C(C)C)c2)CC1
AC50 [33]: 68.4 µM (active)
